Data from patent US9005922B2, “Sensor chip for screening topoisomerase inhibitor and screening method thereof” (Taipei Medical University, priority 2010, dated 2015).

Tests used:
[1] = target: T1, hTopI-DNA cleavage complex (Homo sapiens, UniProt P11387); assay: SPR assay on sensor chip with immobilized hTop I, inhibitor together with pUC19 plasmid DNA in analytes; assay type: binding
T1 construct: made in house
T1 sequence (P11387 1-765): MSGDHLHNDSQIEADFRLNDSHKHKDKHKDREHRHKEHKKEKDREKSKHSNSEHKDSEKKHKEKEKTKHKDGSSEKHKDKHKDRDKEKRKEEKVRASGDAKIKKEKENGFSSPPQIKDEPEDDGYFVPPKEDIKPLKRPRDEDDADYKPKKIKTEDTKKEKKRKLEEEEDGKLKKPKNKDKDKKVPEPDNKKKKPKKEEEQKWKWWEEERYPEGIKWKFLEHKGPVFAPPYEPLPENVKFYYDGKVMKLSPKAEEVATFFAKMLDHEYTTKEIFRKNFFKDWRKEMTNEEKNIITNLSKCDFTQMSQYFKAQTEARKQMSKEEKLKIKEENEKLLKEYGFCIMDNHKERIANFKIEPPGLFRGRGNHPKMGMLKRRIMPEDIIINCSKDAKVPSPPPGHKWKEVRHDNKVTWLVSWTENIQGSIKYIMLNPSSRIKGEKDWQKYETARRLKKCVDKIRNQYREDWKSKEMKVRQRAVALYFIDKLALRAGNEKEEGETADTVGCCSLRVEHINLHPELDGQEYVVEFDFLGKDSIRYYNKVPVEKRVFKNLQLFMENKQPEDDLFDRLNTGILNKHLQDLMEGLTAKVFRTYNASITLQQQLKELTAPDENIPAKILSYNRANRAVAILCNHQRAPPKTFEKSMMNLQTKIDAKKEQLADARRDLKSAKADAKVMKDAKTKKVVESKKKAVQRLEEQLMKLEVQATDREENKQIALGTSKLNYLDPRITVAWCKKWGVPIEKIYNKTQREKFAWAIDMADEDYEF
Description: (§1) Briefly, the surface of the micro-fluid chip is activated with 0.05-0.5 M N-hydroxysuccinimide and 0.1-0.5 M N-ethyl-N′-(3-dimethylaminopropyl) carbodiimimide at a flow rate of 25 μL/min. The hTop I is diluted in 10 mM sodium acetate and adjusted pH values to pH 3.0-10.0, preferably to pH 5.0-8.5, especially to pH 7.5. The hTop I is immobilized on the micro-fluid chip at 20-40[…] (preferably at 25[…]) using a flow rate of 10-40 μL/min (preferably 25-30 μL/min, specially 25 μL/min) for 60-300 seconds (preferably 200-300 seconds), and therefore the contents of the hTop I are about 20-150 μL. Activated amine groups are quenched with injecting 1 M ethanolamine (pH 7.0-9.0). Recombinant hTop I was covalently coupled to the carboxymethylated dextran surface of the chip using standard amine-coupling chemistry.
To characterize the drug-binding kinetics using the SPR sensor chip, plasmid DNA (1.0 μg/ml) is included in the analytes. […] The interaction causes an increase in the higher the mass of ligands immobilized on the micro-fluid chip, and is reflected in a rise in RUs.

[2] = target: T2, recombinant human topoisomerase I (hTop I) (Homo sapiens, UniProt P11387); assay: Gel electrophoresis assay of pUC19 supercoiled DNA relaxation by hTop I; assay type: biochemical; conditions: pUC19 plasmid DNA with hTop I, agarose gel, CPT 2-8 μM, FIG. 4 lanes 3-6
T2 construct: made in house
T2 sequence (P11387 1-765): T1 sequence (P11387 1-765)
Source text: The pUC19 plasmid DNA is closely circular double-stranded supercoiled DNA. When the pUC19 plasmid DNA is interacted with the Top I, one strand of the circular double-stranded supercoiled DNA is cleaved, separated and religated to form a relaxed form. A gel electrophoresis assay is used to evaluate the conformational change of pUC19 plasmid DNA.

immobilized hTop I = target: T3, immobilized hTop I (Homo sapiens, UniProt P11387); assay: SPR assay on sensor chip with immobilized hTop I, inhibitor alone without DNA in analytes; assay type: binding; conditions: CPT alone 0-250 nM, no DNA in analytes, FIG. 8
T3 construct: made in house
T3 sequence (P11387 1-765): T1 sequence (P11387 1-765)
Description: as §1
[…] […] The interaction causes an increase in the higher the mass of ligands immobilized on the micro-fluid chip, and is reflected in a rise in RUs.

[3] = pUC19 plasmid DNA 1.0 μg/ml plus CPT, compared to DNA only, ProteOn Manager 2.0 calculation

Structure (SMILES) | binding to hTop I immobilized on the micro-fluid chip ([1]; VP-16 and pUC19 plasmid DNA loaded simultaneously) | inhibitory effect on hTop I relaxation activity (supercoiled DNA retained) [2] | binding to hTop I (RU values) (immobilized hTop I) | RU response (binding) ([1]; pUC19 plasmid DNA 1.0 μg/ml plus CPT 0, 62.5, 125 and 250 nM, FIG. 9) | Ka [1, 3] | Kd [1, 3]
COc1cc([C@@H]2c3cc4c(cc3[C@@H](O[C@@H]3O[C@@H]5CO[C@@H](C)O[C@H]5[C@H](O)[C@H]3O)[C@H]3COC(=O)[C@H]23)OCO4)cc(OC)c1O [VP-16, etoposide] | does not bind to the hTop I | – | – | – | – | –
CC[C@@]1(O)C(=O)OCc2c1cc1n(c2=O)Cc2cc3ccccc3nc2-1 [CPT, camptothecin] | – | inhibited hTop I relaxation activity | does not bind to hTopI without DNA | RU increases in a concentration-dependent manner | 9.11×10^7 | 3.74×10^−21
